Patent US9402919B2, “Vectors conditionally expressing protein” (Intrexon Corporation, priority 2011, dated 2016)

What was measured:
[1] = Plasma HuEPO expression as a function of activator ligand dose in chow after IM AAV-HuEPO (0034A); format: in vivo
Experimental: Animals were anesthetized, their quadriceps were visualized and the injection site sterilized. The mice were injected with vector using a 0.5 ml insulin syringe and a 29.5 gauge needle. Each animal was injected with total of 10^11 virus genomes in a 100 μl volume. After the procedure, the animals were placed in their cage and observed for normal ambulation.
Plasma samples were assayed for the presence of human erythropoietin using Enzyme Linked Immunosorbent Assay (ELISA) (StemCell Technologies, #01630).
Animals were bled for baseline HCT levels, followed by IM administration of 10^11 AAV-HuEPO viral genomes per animal (0034A). Animals received activator ligand-containing chow, with activator ligand concentrations 1000 mg/kg (18-1000), 250 mg/kg (18-250), 100 mg/kg (18-100), 50 mg/kg (18-50), or 0 mg/kg (18-0) starting on the day of AAV administration. Control animals received either vector administration and normal chow (no activator ligand, 18-0), or they received vehicle-alone IM administration (saline) with (18-1000) or without (18-0) activator ligand. HCT and HuEPO expression levels were measured in all groups every 7 days.

[2] = system: murine melanoma, B16F0; assay: Bilateral B16F0 melanoma model: tumor volume after intratumoral Ad-RTS-mIL12; format: in vivo, C57BL/6 mice; conditions: day 21 post cell inoculation; activator ligand chow 1000 mg/kg alone, no vector
Description: We investigated if the treatment of a local tumor with Ad-RTS-mIL12 (resulting in local tumor growth regression) would also lead to anti-tumor activity in the distant tumor. Toward this goal, we developed melanoma tumors on both flank regions of immunocompetent mice (C57BL/6) and treated the tumor on the right flank with Ad-RTS-mIL12 in the presence of activator ligand.
Six- to eight-week-old female C57B1/6 mice were purchased from Harlan (USA). Animal care and experimental procedures were performed according to Intrexon's Institutional Animal Care and Use Committee guidelines.
The murine melanoma (B16F0) cells were purchased from ATCC (Manassas, Va.). B16F0 cells were grown in Dulbecco's modified Eagle's medium (ATCC, Manassas, Va.), The DMEM was supplemented with heat-inactivated fetal calf serum (FCS) 10% v/v, 2-mM L-glutamine (Atlanta Biologicals, Inc, Lawrenceville, Ga.), 100 IU/ml […], and 100 μg/ml streptomycin. The cells were grown at 37° C. in 5% CO2. All cell lines were routinely tested and found to be free of mycoplasma. […]
Vector was administered intratumorally on Day 12 and Day 19 post tumor cell inoculation. Tumor size and body weight of each mouse were monitored three times a week until the end of the study. […]
The tumor volumes were calculated using the formula, L×W^2/2. […]

[3] = system: Lewis lung carcinoma (LLC); assay: Syngeneic Lewis lung carcinoma model: tumor growth after i.t. Ad-RTS vectors with oral AL; format: in vivo, mice; conditions: oral AL alone in feed at 1000 ppm (~225 mg/kg/day)
Description: Current cancer immunotherapies have provided limited success in the clinic and innovative strategies are required to further enhance the effectiveness of an anti-tumor immune response. This study assessed anti-tumor activity utilizing intratumoral (i.t.) administration of adenovirus (Ad) with the novel Rheoswitch Therapeutic System® (RTS®), an inducible promoter system, for regulated expression of murine IL-12 or IFNa. Oral administration of a small molecule activator ligand (AL), INXN-1001, regulates the expression of IL-12 in Ad-RTS-mIL-12 and IFNa in Ad-RTS-mIFNa. The regulated expression and therapeutic benefit of IL-12 and IFNa from i.t. administered Ad-RTS-mIL-12 and Ad-RTS-mIFNa, either alone or in combination, was examined in syngeneic Lewis lung carcinoma (LLC) and syngeneic mammary carcinoma (4T1) models.
In contrast, i.t. injection with 10^10 vp Ad-RTS-mIL-12 or Ad-RTS-mIFNa and daily oral AL led to significant tumor growth inhibition by day 25 (72 and 71%, respectively; p<0.05). […] Future studies will investigate the mechanism by which both IL-12 and IFNα exert their anti-tumor effect in the above tumor models.
LLC and 4T1 cells were transiently transduced with Ad-RTS-murine IL12 or Ad-RTS-murine IFNa at a MOI of 100. […] Supernatants were collected at 48 h and cytokine levels assessed by ELISA. n=3, mean±s.d. […]

SMILES	plasma HuEPO expression ([1]; ligand chow 50 mg/kg (18-50), 14 and 21 days, 0034A IM)	plasma HuEPO expression ([1]; ligand chow 50 mg/kg (18-50), 7 days, 0034A 10^11 viral genomes IM, limit of sensitivity of the assay)	plasma HuEPO expression ([1]; ligand chow 100 mg/kg (18-100), 7 days, 0034A IM)	average tumor volume, right flank tumor [2]	inhibition of tumor growth compared to control, untreated tumors [3]
CCC[C@@H](N(NC(=O)c1cccc(OC)c1CC)C(=O)c1cc(C)cc(C)c1)C(C)(C)C [activator ligand, (R)-3,5-Dimethyl-benzoic acid N-(1-tert-butyl-butyl)-N′-(2-ethyl-3-methoxy-benzoyl)-hydrazide]	detectable	≤ 8 mU/ml	lower HuEPO expression	924±80 mm^3	
CCC[C@@H](N(NC(=O)c1cccc(OC)c1CC)C(=O)c1cc(C)cc(C)c1)C(C)(C)C [AL]					did not result in significant inhibition of tumor growth
